Laboratory results taken from patent US20260158011A1 (Achieve Life Sciences, Inc., priority 2023, published 2026).
Like-named read-outs stand apart in the source and are kept apart here.

Tests used:
[1] = tested on: adults smoking 10+ cigarettes daily; conditions: for Serious AEs: ORCA-1, pooled cytisinicline arms (n = 203)
Excerpt: Table 13 summarizes the treatment emergent adverse events (TEAEs).

[2] = tested on: adults who smoked 10 cigarettes per day; conditions: for Biochemically confirmed continuous smoking abstinence Weeks 3-6, % / Biochemically confirmed continuous smoking abstinence Weeks 9-12, %: primary outcome; for Biochemically confirmed continuous smoking abstinence Weeks 6-24, % / Biochemically confirmed continuous smoking abstinence Weeks 12-24, %: secondary outcome; for Relapse-free abstinence from week 6 to 24: intent-to-treat
Description: The trial was conducted at 17 U.S. sites. Adults aged 18 years were eligible if they currently smoked 10 cigarettes per day, had expired air carbon monoxide (CO) ≥10 ppm, and intended to quit smoking. Individuals were excluded if they used any non-cigarette tobacco product (pipe tobacco, cigars, smokeless tobacco, hookah), electronic cigarettes, smoking cessation medication (bupropion, varenicline, nortriptyline, nicotine replacement product), or marijuana (smoked or vaped) in the 28 days before randomization or planned to use them during the study. Other exclusion criteria included uncontrolled hypertension, hepatic or renal impairment, past 3-month history of acute myocardial infarction, unstable angina, cerebrovascular incident, or hospitalization for congestive heart failure, diagnosis of schizophrenia or bipolar disorder, current psychosis, suicidal ideation or suicide risk (Columbia Suicide Severity Rating Scale), (1) moderate to severe depression symptoms (Hospital Anxiety and Depression Scale score ≥11), (2) or a positive urinary screen for illicit drugs. (Full criteria in Trial Protocol).
At a screening visit, individuals provided written informed consent, completed a medical history, brief physical examination, electrocardiogram and laboratory tests, agreed to a quit date 5 to 7 days after study drug initiation, and recorded the number of cigarettes smoked daily for 7 days. At a second visit, participants who met inclusion and exclusion criteria were randomly assigned to study arm, received brief smoking cessation counseling, set their quit date within 5 to 7 days and started study medication the next day. A predetermined central computer-generated randomization sequence was used to assign participants (1:1:1) stratified by study site to receive placebo TID for 12 weeks (Arm A), 3 mg cytisinicline TID for 6 weeks followed by placebo TID for 6 weeks (Arm B), or 3 mg cytisinicline TID for 12 weeks (Arm C).
Study medication was identical-appearing tablets, containing 3 mg cytisinicline or placebo taken orally TID for 12 weeks. Participants were followed for 12 additional weeks after treatment ended. All participants received 10 minutes of brief smoking cessation behavioral support provided by trained counselors at each visit from randomization through week 24.
Assessments after randomization were conducted at in-person visits on day 2, weekly from 1 to 12 weeks, and at weeks 16, 20, and 24. Participants who discontinued study drug prematurely were encouraged to remain in the study and complete all assessment visits. Smoking status was assessed by self-report of cigarette abstinence since the last visit, measured weekly from weeks 2 through 12. Self-reported abstinence at weeks 16, 20, and 24 used the Russell criteria of not smoking more than 5 cigarettes since the last visit (3). A breath carbon monoxide (CO) level was measured at each visit. Verified abstinence required self-reported nonsmoking and a breath carbon monoxide (CO) <10 ppm. Participants not meeting these criteria or with missing data were classified as smoking.
The study had two primary endpoints. […] Study success was defined as either primary endpoint meeting statistical criterion. The secondary outcome measures were verified continuous cigarette abstinence to week 24 (weeks 3 to 24 for Arms B vs. A; weeks 9 to 24 for Arms C vs. A). A third secondary outcome measure compared the risk of relapse to smoking between weeks 6 and 24 among participants assigned to cytisinicline who achieved abstinence by week 6; these individuals were either switched to placebo at week 6 (Arm B) or continued cytisinicline to week 12 (Arm C). Other pre-specified endpoints included comparing the difference between arms in verified 7-day point-prevalence abstinence at each visit from week 2 through week 24 and assessing for evidence of effect modification for subsets defined by baseline attributes.

[3] = 1.5 mg downward titration (n = 51)
[4] = 3.0 mg downward titration (n = 50)
[5] = pooled cytisinicline arms (n = 203)
[6] = Arm B Cytisinicline 6 weeks, N = 269
[7] = Arm C Cytisinicline 12 weeks, N = 270

O=c1cccc2n1C[C@@H]1CNC[C@H]2C1 [cytisine, (−)-Cytisine]
TEAE: Abnormal dreams ([1]; 1.5 mg TID (n = 52)): 4 (8%) n (%)
TEAE: At least 1 AE ([1]; 1.5 mg TID (n = 52)): 20 (39%) n (%)
TEAE: Constipation ([1]; 1.5 mg TID (n = 52)): 1 (2%) n (%)
TEAE: Fatigue ([1]; 1.5 mg TID (n = 52)): 3 (6%) n (%)
TEAE: Headache ([1]; 1.5 mg TID (n = 52)): 6 (12%) n (%)
TEAE: Insomnia ([1]; 1.5 mg TID (n = 52)): 4 (8%) n (%)
TEAE: Nausea ([1]; 1.5 mg TID (n = 52)): 1 (2%) n (%)
TEAE: URTI ([1]; 1.5 mg TID (n = 52)): 5 (10%) n (%)
TEAE: Abnormal dreams [1, 3]: 4 (8%) n (%)
TEAE: At least 1 AE [1, 3]: 29 (57%) n (%)
TEAE: Fatigue [1, 3]: 1 (2%) n (%)
TEAE: Headache [1, 3]: 1 (2%) n (%)
TEAE: Insomnia [1, 3]: 3 (6%) n (%)
TEAE: Nausea [1, 3]: 5 (10%) n (%)
TEAE: URTI [1, 3]: 3 (6%) n (%)
TEAE: Abnormal dreams ([1]; 3.0 mg TID (n = 50)): 3 (6%) n (%)
TEAE: At least 1 AE ([1]; 3.0 mg TID (n = 50)): 21 (42%) n (%)
TEAE: Constipation ([1]; 3.0 mg TID (n = 50)): 3 (6%) n (%)
TEAE: Fatigue ([1]; 3.0 mg TID (n = 50)): 1 (2%) n (%)
TEAE: Headache ([1]; 3.0 mg TID (n = 50)): 2 (4%) n (%)
TEAE: Insomnia ([1]; 3.0 mg TID (n = 50)): 3 (6%) n (%)
TEAE: Nausea ([1]; 3.0 mg TID (n = 50)): 3 (6%) n (%)
TEAE: URTI ([1]; 3.0 mg TID (n = 50)): 3 (6%) n (%)
TEAE: Abnormal dreams [1, 4]: 7 (14%) n (%)
TEAE: At least 1 AE [1, 4]: 23 (46%) n (%)
TEAE: Fatigue [1, 4]: 2 (4%) n (%)
TEAE: Headache [1, 4]: 1 (2%) n (%)
TEAE: Insomnia [1, 4]: 4 (8%) n (%)
TEAE: Nausea [1, 4]: 3 (6%) n (%)
TEAE: URTI [1, 4]: 2 (4%) n (%)
Serious AEs [1]: no serious or severe adverse events
Serious AEs ([1]; listed as Cytisinicline): 0
TEAE: Abnormal dreams [1, 5]: 18 (9%) n (%)
TEAE: At least 1 AE [1, 5]: 93 (46%) n (%)
TEAE: Constipation [1, 5]: 4 (2%) n (%)
TEAE: Fatigue [1, 5]: 7 (3%) n (%)
TEAE: Headache [1, 5]: 10 (5%) n (%)
TEAE: Insomnia [1, 5]: 14 (7%) n (%)
TEAE: Nausea [1, 5]: 12 (6%) n (%)
TEAE: URTI [1, 5]: 13 (6%) n (%)
OR for relapse-free abstinence week 6 to 24, Arm B vs Arm C ([2]; 12-week versus 6-week cytisinicline): 1.31
Biochemically confirmed continuous smoking abstinence Weeks 3-6, % [2, 6]: 25.3%
Biochemically confirmed continuous smoking abstinence Weeks 9-12, % [2, 6]: 22.3%
Biochemically confirmed continuous smoking abstinence Weeks 6-24, % [2, 6]: 8.9%
Biochemically confirmed continuous smoking abstinence Weeks 12-24, % [2, 6]: 13.8%
OR versus placebo, continuous abstinence weeks 3 to 24 ([2]; Arm B vs. A): 3.7
OR versus placebo, continuous abstinence weeks 3 to 6 ([2]; Arm B vs. A (6-week treatment)): 8.0
Risk Difference, continuous smoking abstinence Weeks 6-24 ([2]; Arm B vs. Arm A, Cytisinicline-6 weeks vs. placebo, 95% CI 0.03, 0.09): 0.06
Risk Difference, continuous smoking abstinence Weeks 12-24 ([2]; Arm B vs. Arm A, Cytisinicline-6 weeks vs. placebo, 95% CI 0.04, 0.13): 0.09
Risk Difference, continuous smoking abstinence Weeks 9-12 ([2]; Arm B vs. Arm A, Cytisinicline-6 weeks vs. placebo, 95% CI 0.10, 0.20): 0.15
Risk Difference, continuous smoking abstinence Weeks 3-6 ([2]; Arm B vs. Arm A, Cytisinicline-6 weeks vs. placebo, 95% CI 0.16, 0.25): 0.21
Relative Risk, continuous smoking abstinence Weeks 6-24 ([2]; Arm B vs. Arm A, Cytisinicline-6 weeks vs. placebo, 95% CI 1.56, 8.50): 3.45
Relative Risk, continuous smoking abstinence Weeks 12-24 ([2]; Arm B vs. Arm A, Cytisinicline-6 weeks vs. placebo, 95% CI 1.59, 5.46): 2.87
Relative Risk, continuous smoking abstinence Weeks 9-12 ([2]; Arm B vs. Arm A, Cytisinicline-6 weeks vs. placebo, 95% CI 1.98, 5.30): 3.18
Relative Risk, continuous smoking abstinence Weeks 3-6 ([2]; Arm B vs. Arm A, Cytisinicline-6 weeks vs. placebo, 95% CI 3.26, 10.74): 5.71
NNT (number needed to treat), continuous smoking abstinence Weeks 3-6 ([2]; Arm B vs. Arm A, Cytisinicline-6 weeks vs. placebo, 95% CI 4, 7): 5
NNT (number needed to treat), continuous smoking abstinence Weeks 9-12 ([2]; Arm B vs. Arm A, Cytisinicline-6 weeks vs. placebo, 95% CI 4, 11): 7
NNT (number needed to treat), continuous smoking abstinence Weeks 12-24 ([2]; Arm B vs. Arm A, Cytisinicline-6 weeks vs. placebo, 95% CI 7, 24): 11
NNT (number needed to treat), continuous smoking abstinence Weeks 6-24 ([2]; Arm B vs. Arm A, Cytisinicline-6 weeks vs. placebo, 95% CI 10, 40): 16
Biochemically-confirmed continuous smoking abstinence, weeks 3 to 6 ([2]; Arm B: 3 mg cytisinicline TID 6 weeks then placebo 6 weeks): 25.3%
Continuous abstinence weeks 3 to 24 ([2]; Arm B: 6-week cytisinicline treatment): 8.9%
Relapse-free abstinence from week 6 to 24 ([2]; Arm B: switched to placebo at week 6): 10.4%
Biochemically confirmed continuous smoking abstinence Weeks 3-6, % [2, 7]: 22.2%
Biochemically confirmed continuous smoking abstinence Weeks 9-12, % [2, 7]: 32.6%
Biochemically confirmed continuous smoking abstinence Weeks 6-24, % [2, 7]: 11.9%
Biochemically confirmed continuous smoking abstinence Weeks 12-24, % [2, 7]: 21.1%
OR versus placebo, continuous abstinence weeks 9 to 24 ([2]; Arm C vs. A): 5.3
OR versus placebo, continuous abstinence weeks 9 to 12 ([2]; Arm C vs. A (12-week treatment)): 6.3
Risk Difference, continuous smoking abstinence Weeks 6-24 ([2]; Arm C vs. Arm A, Cytisinicline-12 weeks vs. placebo, 95% CI 0.05, 0.12): 0.09
Risk Difference, continuous smoking abstinence Weeks 12-24 ([2]; Arm C vs. Arm A, Cytisinicline-12 weeks vs. placebo, 95% CI 0.11, 0.20): 0.16
Risk Difference, continuous smoking abstinence Weeks 3-6 ([2]; Arm C vs. Arm A, Cytisinicline-12 weeks vs. placebo, 95% CI 0.13, 0.22): 0.18
Risk Difference, continuous smoking abstinence Weeks 9-12 ([2]; Arm C vs. Arm A, Cytisinicline-12 weeks vs. placebo, 95% CI 0.20, 0.30): 0.26
Relative Risk, continuous smoking abstinence Weeks 6-24 ([2]; Arm C vs. Arm A, Cytisinicline-12 weeks vs. placebo, 95% CI 2.15, 11.05): 4.59
Relative Risk, continuous smoking abstinence Weeks 12-24 ([2]; Arm C vs. Arm A, Cytisinicline-12 weeks vs. placebo, 95% CI 2.53, 8.15): 4.40
Relative Risk, continuous smoking abstinence Weeks 3-6 ([2]; Arm C vs. Arm A, Cytisinicline-12 weeks vs. placebo, 95% CI 2.842, 9.50): 5.02
Relative Risk, continuous smoking abstinence Weeks 9-12 ([2]; Arm C vs. Arm A, Cytisinicline-12 weeks vs. placebo, 95% CI 2.98, 7.58): 4.65
NNT (number needed to treat), continuous smoking abstinence Weeks 9-12 ([2]; Arm C vs. Arm A, Cytisinicline-12 weeks vs. placebo, 95% CI 3, 6): 4
NNT (number needed to treat), continuous smoking abstinence Weeks 3-6 ([2]; Arm C vs. Arm A, Cytisinicline-12 weeks vs. placebo, 95% CI 4, 8): 6
NNT (number needed to treat), continuous smoking abstinence Weeks 12-24 ([2]; Arm C vs. Arm A, Cytisinicline-12 weeks vs. placebo, 95% CI 4, 9): 6
NNT (number needed to treat), continuous smoking abstinence Weeks 6-24 ([2]; Arm C vs. Arm A, Cytisinicline-12 weeks vs. placebo, 95% CI 8, 20): 11
Biochemically-confirmed continuous smoking abstinence, weeks 9 to 12 ([2]; Arm C: 3 mg cytisinicline TID 12 weeks): 32.6%
Continuous abstinence weeks 9 to 24 ([2]; Arm C: 12-week cytisinicline treatment): 21.1%
Relapse-free abstinence from week 6 to 24 ([2]; Arm C: continued cytisinicline to week 12): 13.3%
Odds Ratio Arm B vs. Arm A, continuous smoking abstinence Weeks 6-24 ([2]; Cytisinicline 6 wk vs. placebo, 95% CI 1.5 to 10.2, P .002): 3.7
Odds Ratio Arm B vs. Arm A, continuous smoking abstinence Weeks 3-6 ([2]; Cytisinicline 6 wk vs. placebo, 95% CI 3.9 to 16.3, P <.001): 8.0
Odds Ratio Arm C vs. Arm A, continuous smoking abstinence Weeks 12-24 ([2]; Cytisinicline 12 wk vs. placebo, 95% CI 2.8 to 11.1, P <.001): 5.3
Odds Ratio Arm C vs. Arm A, continuous smoking abstinence Weeks 9-12 ([2]; Cytisinicline 12 wk vs. placebo, 95% CI 3.7 to 11.6, P <.001): 6.3
Mean total cigarette craving score (QSU-brief) ([2]; baseline to week 6, cytisinicline for 6 or 12 weeks compared to placebo): declined more rapidly
